Assay results: ChEMBL document CHEMBL4359912, “Novel N-Substituted oseltamivir derivatives as potent influenza neuraminidase inhibitors: Design, synthesis, biological evaluation, ADME prediction and molecular docking studies” (Eur J Med Chem, 2019)

Molecular target: Neuraminidase (Influenza A virus (A/Memphis/1/1971(H3N2)), UniProt P03471)
Assay: Inhibition of influenza A virus H3N2 clinical isolate neuraminidase using NA-Fluor MUNANA as substrate preincubated for 20 to 30 mins followed by substrate addition and measured for 60 mins by fluorescence assay

Chain of Neuraminidase (Influenza A virus (A/Memphis/1/1971(H3N2)), UniProt P03471) (P03471 whole entry): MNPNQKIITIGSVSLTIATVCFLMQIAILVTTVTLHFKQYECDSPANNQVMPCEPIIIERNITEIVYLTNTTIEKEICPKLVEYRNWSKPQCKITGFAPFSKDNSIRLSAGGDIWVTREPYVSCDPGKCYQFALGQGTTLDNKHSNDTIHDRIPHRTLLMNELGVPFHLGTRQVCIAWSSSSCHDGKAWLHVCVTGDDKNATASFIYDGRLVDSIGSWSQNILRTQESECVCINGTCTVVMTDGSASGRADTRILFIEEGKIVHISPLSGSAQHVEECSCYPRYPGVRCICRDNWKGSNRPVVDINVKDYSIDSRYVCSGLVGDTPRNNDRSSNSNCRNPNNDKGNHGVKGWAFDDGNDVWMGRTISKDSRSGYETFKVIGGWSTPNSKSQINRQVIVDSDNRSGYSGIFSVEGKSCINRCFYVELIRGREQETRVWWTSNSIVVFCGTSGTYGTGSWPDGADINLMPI

SMILES | IC50
CCC(CC)O[C@@H]1C=C(C(=O)O)C[C@H](NCc2ccc(-c3c(C)noc3C)o2)[C@H]1NC(C)=O | 1.63 nM
CCC(CC)O[C@@H]1C=C(C(=O)O)C[C@H](NCc2noc(-c3ccco3)n2)[C@H]1NC(C)=O | 1.92 nM
